“And” between values parts separate entries of the source, which are not always exact repeats. Identical values can stand only once.
Tested on: PBMCs from Phl p reactive donors
Test: Cross-reactivity: IL-5 ELISPOT of PBMCs expanded 14 days with individual peptides, response to pollen extracts
Type: cell-based, human
Conditions: for Ant o % Reactivity: Ant o (grass) pollen extract; for Ant o % Reactivity / Bet v % Reactivity / Lol p % Reactivity / Que a % Reactivity / Amb p % Reactivity / Cyn d % Reactivity / Ole e % Reactivity / Phl p % Reactivity / Pla l % Reactivity / Poa p % Reactivity: reactivity of extract as percentage of reactivity to the peptide, PBMCs expanded 14 days with the peptide; for Bet v % Reactivity: Bet v (tree) pollen extract; for Lol p % Reactivity: Lol p (grass) pollen extract; for Que a % Reactivity: Que a (tree) pollen extract; for % Reactivity, Fra e: reactivity of Fra e (tree) pollen extract as percentage of the reactivity to the peptide, cells expanded with the peptide for 14 days; for Amb p % Reactivity: Amb p (weed) pollen extract; for Cyn d % Reactivity: Cyn d (grass) pollen extract; for Ole e % Reactivity: Ole e (tree) pollen extract; for Phl p % Reactivity: Phl p (grass) pollen extract; for Pla l % Reactivity: Pla l (weed) pollen extract; for Poa p % Reactivity: Poa p (grass) pollen extract; for Controls, Irrelevant Pool: control: response to irrelevant pool of cells expanded with the peptide; for Controls, Relevant Pool: control: response to relevant pool of cells expanded with the peptide
Procedure: For each peptide, TG allergic donors were selected that reacted to the peptide after expanding PBMCs in vitro with TG extract. […] Reponses to extracts and peptide pools are expressed as the relative fraction of the response to the peptide itself, and capped at 100%.
Each peptide was used to stimulate cells and cross reactivity was tested for extracts from each pollen species. The number of mismatches (# of mm) for each peptide compared to the pollen species and the reactivity of the extracts as a percentage of the reactivity compared to the peptide are shown.
PBMCs from Phl p reactive donors were expanded with individual PG+ peptides as well as peptides derived from major allergens of Phl p for 14 days (peptides shown in Table 10). For each peptide, the mismatch to a corresponding sequence in a non-grass pollen species or a pollen species other than Phl p were determined. Cytokine IL-5 responses were measured in response to the peptide itself, Phl p extract and extracts of the other pollen species. Reponses to extracts and peptide pools were expressed as the relative fraction of the response to the peptide itself and plotted as a function of conservation of the peptide in the different extracts (FIG. 1).

Sequence | Ant o % Reactivity | Bet v % Reactivity | Lol p % Reactivity | Que a % Reactivity | % Reactivity, Fra e | Amb p % Reactivity | Cyn d % Reactivity | Ole e % Reactivity | Phl p % Reactivity | Pla l % Reactivity | Poa p % Reactivity | Controls, Irrelevant Pool | Controls, Relevant Pool
STWYGKPTGAGPKDN | 51% and 64% | 0% | 64% and 40% | 1% and 0% | 1% and 0% | – | – | – | – | – | – | – | –
AVMLTFDNAGMWNVR | 9% | 0% | 36% | 0% | 0% | 2% | 18% | 3% | 4% | 9% | 25% | 0 | 100
DIYNYMEPYVSKVDP | – | 0% | 100% | 0% | 49% | 37% | 83% | 82% | 30% | 17% | 23% | 49 | 100
DINVGFKAAVAAAAG | – | 0% and 2% | – | 2% and 0% | 0% and 4% and 1% | – | – | – | – | 0% and 3% and 10% | – | – | 53 and 100 and 95
GELELQFRRVKCKYP | – | – | – | – | – | – | – | – | – | – | – | – | 88 and 53 and 92 and 100
INVGFKAAVAAAASV | – | 1% and 0% | – | 0% and 2% | – | – | – | – | – | 0% and 9% | – | – | 100 and 70 and 60
NLALSIKYNKEGDSM | 0% | 0% | 76% | 0% | 0% | 76% | 76% | 78% | 57% | 41% | 100% | 0 | 100
IGSFFYFPSIGMQRT | 3% | 2% | 6% | 1% | 1% | 0% | 9% | 1% | 0% | 2% | 2% | 1 | 63
LIEKINAGFKAAVAA | – | 0% and 9% | 39% and 77% | 0% and 3% | – | – | 1% and 9% | 2% and 12% | – | – | 41% and 79% | 14 and 20 | 83 and 90
QYAKEIWGITANPVP | 2% | 73% | 24% | 32% | 12% | 83% | 10% | 44% | – | 15% | 22% | 7 | 100
FPIVQRFLEGASSID | 89% and 100% | 5% and 0% | – | 0% | – | – | 22% and 39% | – | – | – | 95% and 100% | 100 | –
NVFDEVIPTAFTVGK | – | 2% and 0% | 96% and 100% | 0% | – | – | 0% | – | 75% and 81% | – | – | 17 and 28 | 100
NVWEVKSSKPLVGPF | – | 1% and 2% and 5% and 4% and 0% | – | – | 0% | – | – | – | – | – | – | – | 100 and 68 and 94
SDAKTLVLNIKYTRP | – | – | – | – | – | – | – | – | – | – | – | – | 88 and 100 and 81 and 80
EEWEPLTKKGNVWEV | 100% | 3% | 100% | 1% | 76% | 49% | 7% | 13% | 100% | 23% | 100% | 32 | 100
NPMTVFWSKMAQSMT | 0% | 0% | 1% | 0% | 0% | 0% | 1% | 0% | 0% | 0% | 0% | 1 | 79
GSDEKNLALSIKYNK | 58% | 0% | 66% | 0% | 4% | 5% | 8% | 10% | 32% | 0% | 67% | 19 | 87
MRNVFDDVVPADFKV | – | 2% and 3% and 1% and 0% | 88% and 82% and 73% and 72% and 100% | – | – | – | – | – | – | – | – | – | 81 and 94 and 98 and 100
NAGFKAAVAAAAVVP | – | – | – | – | – | – | – | – | – | – | – | – | 77 and 100
LAKYKANWIEIMRIK | 14% | – | 33% | – | 14% | – | 47% | – | 6% | – | 22% | 19 | 31
NGSQFFLCTAKTAWL | – | 1% | – | – | 3% and 0% | – | – | 4% and 5% | – | 1% and 2% | – | – | 100 and 89
DAYVATLTEALRVIA | 95% and 90% and 58% and 68% | – | – | 10% and 8% and 0% | – | – | – | – | – | – | – | – | 100 and 96 and 67

— patent US20160287696A1, “PAN POLLEN IMMUNOGENS AND METHODS AND USES FOR IMMUNE RESPONSE MODULATION” (LA JOLLA INSTITUTE FOR ALLERGY AND IMMUNOLOGY, priority 2013, published 2016)
